According to paper PMC3244823 (2011):

Molecular target: Pin1 (murine embryonic fibroblasts) (Mus musculus, UniProt Q9QUR7)
Experiment: EGCG-Sepharose pull-down from MEF lysates
Assay type: cell-based

Sequence of Pin1 (murine embryonic fibroblasts) (Q9QUR7 whole entry): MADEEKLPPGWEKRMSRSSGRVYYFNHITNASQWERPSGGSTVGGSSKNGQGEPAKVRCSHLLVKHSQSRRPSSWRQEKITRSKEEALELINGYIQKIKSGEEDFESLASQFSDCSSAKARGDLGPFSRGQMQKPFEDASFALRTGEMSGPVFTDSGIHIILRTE

O=C(O[C@@H]1Cc2c(O)cc(O)cc2O[C@@H]1c1cc(O)c(O)c(O)c1)c1cc(O)c(O)c(O)c1 [EGCG, epigallocatechin-3-gallate]
Ki: 45 µM
